Assay: physchem
Settings: organic solvent or mixture, thermodynamic from solid

solubility (Solubility in CHCl3): > 1000 µg/mL
solubility (Solubility in DMAc): > 1000 µg/mL
solubility (Solubility in DMF): > 1000 µg/mL
solubility (Solubility in DMSO): > 1000 µg/mL
solubility (Solubility in MeOH): < 1000 µg/mL
solubility (Solubility in NMP): > 1000 µg/mL
solubility (Solubility in THF): > 1000 µg/mL
solubility (Solubility in m-Cresol): > 1000 µg/mL
Structure (SMILES): N#Cc1ccc(N(c2ccc(C#N)cc2)c2ccc(N(c3ccc(N4C(=O)C=CC4=O)cc3)c3ccc(N4C(=O)C=CC4=O)cc3)cc2)cc1 [Compound 6, N,N-bis(4-maleimidophenyl)-N′,N′-bis(4-cyanophenyl)-1,4-phenylenediamine]
